According to ChEMBL document CHEMBL1201862, “PubChem BioAssay data set” (2004):
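These data come from cells grown in 96-well plates and exposed to compound for 48 hours at five concentrations. GI50: concentration for 50% inhibition of growth.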 Active and inactive are the calls of the source. Rule as the data show it: active = GI50 up to about 1.1 µM and inactive = higher.

Tests used:
Experiment in all cases: DTP human tumour cell line panel, 48 h
RXF 631 = system: RXF 631
M19-MEL = system: M19-MEL
DMS-114 = system: DMS-114
SNB-78 = system: SNB-78
LXFL 529 = system: LXFL 529
DMS-273 = system: DMS-273
HOP-18 = system: HOP-18
KM-20L2 = system: KM-20L2
XF498 = system: XF498

SMILES	GI50 (RXF 631)	GI50 (M19-MEL)	GI50 (DMS-114)	GI50 (SNB-78)	GI50 (LXFL 529)	GI50 (DMS-273)	GI50 (HOP-18)	GI50 (KM-20L2)	GI50 (XF498)
O=C(O)CC[C@H](NC(=O)c1ccc(-n2nc3ccc(=O)cc-3[nH]c2=O)cc1)C(=O)O	> 100 µM (inactive)	> 100 µM (inactive)	> 100 µM (inactive)	> 100 µM (inactive)	> 100 µM (inactive)	> 100 µM (inactive)	> 100 µM (inactive)	> 100 µM (inactive)	
COC(=O)N/N=C(\C)CC(=O)Nc1ccc(Cl)cc1	> 100 µM (inactive)	> 100 µM (inactive)	> 100 µM (inactive)	> 100 µM (inactive)	> 100 µM (inactive)			> 100 µM (inactive)	> 100 µM (inactive)
COc1cccc(OC)c1/C=N\N1C(=O)c2ccccc2C1=O	29.4 µM (inactive)	48.4 µM (inactive)	31.6 µM (inactive)	59.4 µM (inactive)	40.7 µM (inactive)	21.1 µM (inactive)	> 100 µM (inactive)	19.2 µM (inactive)	28.6 µM (inactive)
Cn1nc2ccccc2cc1=O	> 100 µM (inactive)	> 100 µM (inactive)	> 100 µM (inactive)	> 100 µM (inactive)		> 100 µM (inactive)	> 100 µM (inactive)	> 100 µM (inactive)	> 100 µM (inactive)
OC1(C23CC4CC(CC(C4)C2)C3)CSCC1(O)C12CC3CC(CC(C3)C1)C2 (stereo unspecified)	> 100 µM (inactive)	64.6 µM (inactive)	> 100 µM (inactive)	> 100 µM (inactive)	> 100 µM (inactive)	> 100 µM (inactive)			> 100 µM (inactive)
O=C1NCCS(=O)(=O)N[C@@H](CC2=CC=CCC2)C(=O)N2CCCC12 (stereo partly specified)	> 100 µM (inactive)	> 100 µM (inactive)	> 100 µM (inactive)	> 100 µM (inactive)	> 100 µM (inactive)	> 100 µM (inactive)	> 100 µM (inactive)	> 100 µM (inactive)	> 100 µM (inactive)
c1ccc2[nH]c(CNc3ccc(C4C[Se]N=N4)cc3)nc2c1 (stereo unspecified)		41.3 µM (inactive)	21.8 µM (inactive)		18.7 µM (inactive)	67.1 µM (inactive)	> 100 µM (inactive)		
CCn1c2ccccc2c(=O)c2c(OC)ccc(OC)c21	49.1 µM (inactive)	74 µM (inactive)			34 µM (inactive)	30.8 µM (inactive)		92.5 µM (inactive)	34.1 µM (inactive)
CC#CC1C(OC(=O)c2ccccc2)CCCC1(CI)N=[N+]=[N-] (stereo unspecified)		48.5 µM (inactive)	25.1 µM (inactive)	> 100 µM (inactive)	36.4 µM (inactive)	38.7 µM (inactive)	> 100 µM (inactive)	60.7 µM (inactive)	20.1 µM (inactive)
COc1ccc(/C(=N/NC(N)=O)C(c2ccc(OC)cc2)C2C(=O)Oc3ccccc32)cc1 (stereo unspecified)	> 100 µM (inactive)	> 100 µM (inactive)	> 100 µM (inactive)	> 100 µM (inactive)	> 100 µM (inactive)	> 100 µM (inactive)		> 100 µM (inactive)	> 100 µM (inactive)
CCCCOP1(=O)C=C(C)C(=C(Cl)Cl)C(C)=C1 (stereo unspecified)	16.9 µM (inactive)	11.5 µM (inactive)	3.48 µM (inactive)	0.925 µM (active)		3.63 µM (inactive)	22.7 µM (inactive)	2.31 µM (inactive)	13.6 µM (inactive)
N#CC1=C(c2ccccc2)NN(Cc2ccccc2)C(c2ccc(Cl)cc2)CC1=O (stereo unspecified)	28.1 µM (inactive)		32.3 µM (inactive)	99.3 µM (inactive)	20.4 µM (inactive)	21.4 µM (inactive)	17 µM (inactive)	20.8 µM (inactive)	15 µM (inactive)
COC(=O)/C(=C/CC(N=C(c1ccccc1)c1ccccc1)C(=O)OC)N=C(c1ccccc1)c1ccccc1 (stereo unspecified)		> 100 µM (inactive)	15.1 µM (inactive)		> 100 µM (inactive)	> 100 µM (inactive)			> 100 µM (inactive)
CN(C)C(=Nc1nc(N(C)C)s[s+]1)N(C)C	> 100 µM (inactive)	> 100 µM (inactive)	> 100 µM (inactive)		> 100 µM (inactive)	> 100 µM (inactive)	> 100 µM (inactive)	> 100 µM (inactive)	> 100 µM (inactive)
Cc1ccc2[nH]c3c(C)c4c(c(C)c3c2c1)CN(C)C=C4	0.931 µM (active)			0.738 µM (active)	0.377 µM (active)	1.04 µM (active)	7.46 µM (inactive)	2.18 µM (inactive)	1.25 µM (inactive)
CC(=O)Nc1ccc(-c2nnc(SCC(=O)Nc3ccc(Cl)cc3Cl)o2)cc1		51.9 µM (inactive)	15.7 µM (inactive)	> 100 µM (inactive)	19.3 µM (inactive)	39.5 µM (inactive)	55.3 µM (inactive)	42.7 µM (inactive)	
N#CCC(=O)N/N=C(\CCN1CCCC1)CC(c1ccccc1)c1c(O)c2ccccc2oc1=O (stereo unspecified)	> 100 µM (inactive)	78.7 µM (inactive)			> 100 µM (inactive)		> 100 µM (inactive)	> 100 µM (inactive)	> 100 µM (inactive)
OC12CC/C(=N/OCc3ccccc3)CC1c1ccccc12 (stereo unspecified)		> 100 µM (inactive)	> 100 µM (inactive)	> 100 µM (inactive)	> 100 µM (inactive)	> 100 µM (inactive)	> 100 µM (inactive)	> 100 µM (inactive)	
COC(=O)c1sc(C(=O)OC)c2c1CSC2	> 100 µM (inactive)	> 100 µM (inactive)	> 85.5 µM (inactive)	49.3 µM (inactive)	> 100 µM (inactive)	> 100 µM (inactive)	> 100 µM (inactive)	> 100 µM (inactive)	34.7 µM (inactive)
CC1(C)CCC[C@@]2(C)C1CC[C@H]1CC(O)C3(C)CCC12C3 (stereo partly specified)	19.1 µM (inactive)	21.1 µM (inactive)	17.3 µM (inactive)	17.2 µM (inactive)	17.2 µM (inactive)			18.9 µM (inactive)	17.4 µM (inactive)
O=C1C=C(Nc2ccccc2C(=O)CC(=O)C(=O)Nc2cccc([N+](=O)[O-])c2)c2ccccc2C1=O	> 100 µM (inactive)	4.45 µM (inactive)	18.5 µM (inactive)	49.1 µM (inactive)	32.4 µM (inactive)	31.1 µM (inactive)		> 100 µM (inactive)	19.6 µM (inactive)
O=c1[nH]nc2c3n[nH]c(=O)n3c3ccccc3n12	> 100 µM (inactive)	> 100 µM (inactive)	> 100 µM (inactive)	> 100 µM (inactive)	> 100 µM (inactive)	> 100 µM (inactive)		> 100 µM (inactive)	> 100 µM (inactive)
N#CC(NNC(=O)Cc1ccccc1)c1c(O)ccc2ccccc12 (stereo unspecified)		2.71 µM (inactive)	2.08 µM (inactive)	13.6 µM (inactive)		3.68 µM (inactive)	4.36 µM (inactive)	15.8 µM (inactive)	
CSc1nc(NC2OC(COC(C)=O)C(OC(C)=O)C(OC(C)=O)C2OC(C)=O)c2c(n1)OCC2=O (stereo unspecified)	> 100 µM (inactive)	> 100 µM (inactive)	> 100 µM (inactive)	> 100 µM (inactive)	> 100 µM (inactive)		> 100 µM (inactive)	> 100 µM (inactive)	
